Experiment [1] has as its target T1, PCSK9 (Homo sapiens, UniProt Q8NBP7).
T1 construct: Biotinylated PCSK9 was obtained commercially; purchased
The experiment in a line: PCSK9 Alexa FRET Plus TR-FRET assay (displacement of AlexaFluor647 tagged cyclic peptide Reagent B). The experiment is classed as binding. Conditions: 0.5 nM biotinylated PCSK9, 960 nM AF cyclic peptide Reagent B, Ki calculated from IC50 and KD of AF peptide. The procedure:
(§1) The following is a description of the assays used to determine activity of compounds of the invention, and any comparator compounds reported, toward PCSK9 antagonism. Biotinylated PCSK9 was obtained commercially.
A solution containing 1 nM biotinylated PCSK9+2.5 nM Lance Streptavidin Europium (Strep-Eu) is made in 50 mM HEPES pH 7.4, 0.15 M NaCl, 5 mM CaCl2, 0.01% BSA, and 0.01% Surfactant P20. A separate solution containing 1920 nM of the AlexaFluor tagged cyclic peptide is made in the same buffer system. An Echo is used to transfer 0.075 ul of compound plus 0.675 ul of DMSO to each well of an assay plate followed by the addition of 15 ul of PCSK9+Stept-Eu and 15 ul of AF peptide. The final assay volume is 30.750 ul containing 0.5 nM PCSK9, 1.25 nM Strep-Eu, and 960 nM AF cyclic peptide. The reaction is incubated at room temperature for at least two hours prior to fluorescence measurements using an Envision Multilabel Reader. IC50 values are determined by fitting data to a sigmoidal dose-response curve using nonlinear regression. Ki is then calculated from the IC50 and the KD of AF cyclic peptide. Counts (B-counts) of the europium-labeled PCSK9 are followed to observe if compounds are adversely affecting PCSK9. A fall off of the B-counts is likely indicates a false positive of inhibition. Data from this procedure is reported as “P=‘numerical value’ (nanomolar)”
Activity data obtained by one or both of the above-described procedures is reported for selected example compounds of the invention in the following format: Example No.: A (standard TR Fret)=‘numerical value’; P (Alexa Fret plus standard TR Fret)=‘numerical value’/, note that all values reported are nanomolar.

Experiment [2] concerns the target T1, PCSK9. Nature of the experiment: PCSK9 Alexa FRET Ultra TR-FRET assay (displacement of AlexaFluor647 tagged cyclic peptide). The class given is binding. Conditions: 0.5 nM biotinylated PCSK9, 960 nM AF cyclic peptide, Ki calculated from IC50 and KD of AF peptide. As for the experimental part: as §1
A solution containing 1 nM biotinylated PCSK9+2.5 nM Lance Streptavidin Europium (Strep-Eu) is made in 50 mM HEPES pH 7.4, 0.15 M NaCl, 5 mM CaCl2, 0.01% BSA, and 0.01% Surfactant P20. A separate solution containing 1920 nM of the AlexaFluor tagged cyclic peptide is made in the same buffer system. An Echo is used to transfer 0.015 ul of compound plus 0.735 ul of DMSO to each well of an assay plate followed by the addition of 15 ul of PCSK9+Stept-Eu and 15 ul of AF peptide. The final assay volume is 30.750 ul containing 0.5 nM PCSK9, 1.25 nM Strep-Eu, and 960 nM AF cyclic peptide. The reaction is incubated at room temperature for at least two hours prior to fluorescence measurements using an Envision Multilabel Reader. IC50 values are determined by fitting data to a sigmoidal dose-response curve using nonlinear regression. Ki is then calculated from the IC50 and the KD of AF cyclic peptide. Counts (B-counts) of the europium-labeled PCSK9 are followed to observe if compounds are adversely affecting PCSK9. A fall off of the B-counts is likely indicates a false positive of inhibition. Data from this procedure is reported as “Ki Ultra=‘numerical value’ (data reported is nanomolar)”

Bounds are passed on as bounds.

T1 sequence (Q8NBP7 153-692): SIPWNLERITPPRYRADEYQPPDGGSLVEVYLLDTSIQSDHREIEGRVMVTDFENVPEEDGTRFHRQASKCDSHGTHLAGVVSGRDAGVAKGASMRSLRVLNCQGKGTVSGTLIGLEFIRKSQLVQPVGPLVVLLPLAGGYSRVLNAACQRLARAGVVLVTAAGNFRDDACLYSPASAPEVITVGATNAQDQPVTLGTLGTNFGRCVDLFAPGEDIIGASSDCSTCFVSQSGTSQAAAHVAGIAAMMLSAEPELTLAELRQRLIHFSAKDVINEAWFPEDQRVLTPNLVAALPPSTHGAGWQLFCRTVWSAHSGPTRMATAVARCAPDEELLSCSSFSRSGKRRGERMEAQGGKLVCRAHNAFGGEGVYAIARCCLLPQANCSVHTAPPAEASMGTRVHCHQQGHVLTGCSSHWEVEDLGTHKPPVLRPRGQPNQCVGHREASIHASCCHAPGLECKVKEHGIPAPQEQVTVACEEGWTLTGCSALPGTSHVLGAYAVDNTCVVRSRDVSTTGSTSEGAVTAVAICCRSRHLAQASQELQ

Broadly, the Ki is a dissociation constant, usually derived from enzyme kinetics or from competition with a known ligand. As to `COc1ccc(C[C@@H]2NC(=O)[C@H]([C@@H](C)O)NC(=O)[C@@H]3[C@@H]4CCN3C(=O)[C@@H]3Cc5cn(c6ccc(F)cc56)Cc5cn(nn5)Cc5cc(ccc5CNC(=O)CCC(=O)N[C@@H](C)C(=O)N[C@H](CNC(=O)CCOCCOCC[N+](C)(C)C)C(=O)N[C@@H](Cc5cccc(c5)CNC(=O)CO4)C(=O)N3)CCNC(=O)[C@]3(C)CCCN3C2=O)cc1` [Ex-09], the inhibition constant (Ki) in experiment [1] (Ki Plus) is 91.9 pM; in experiment [2] (Ki Ultra) it was 247 pM.

As for `COc1ccc(C[C@@H]2NC(=O)[C@H]([C@@H](C)O)NC(=O)[C@@H]3[C@@H]4CCN3C(=O)[C@@H]3Cc5cn(c6ccc(F)cc56)Cc5cn(nn5)C[C@@H](NC(=O)CCC(=O)N[C@@H](C)C(=O)N[C@H](CNC(=O)CCOCCOCC[N+](C)(C)C)C(=O)N[C@@H](Cc5cccc(c5)CNC(=O)CO4)C(=O)N3)c3ccc(cc3)CCNC(=O)[C@]3(C)CCCN3C2=O)cc1` [Ex-10], the Ki in experiment [1] (read-out: Ki Plus) was 5.74 pM; in experiment [2] (read-out: Ki Ultra), 24.9 pM.

For `COc1ccc(C[C@@H]2NC(=O)[C@H]([C@@H](C)O)NC(=O)[C@@H]3[C@@H]4CCN3C(=O)[C@@H]3Cc5cn(c6ccc(F)cc56)Cc5cn(nn5)C[C@@H](NC(=O)CCC(=O)N[C@@H](CNC(=O)CCOCCOCC[N+](C)(C)C)C(=O)N[C@H](C)C(=O)N[C@@H](Cc5cccc(c5)CNC(=O)CO4)C(=O)N3)c3ccc(cc3)CCNC(=O)[C@]3(C)CCCN3C2=O)cc1` [Ex-11], the inhibitory constant (Ki) in experiment [1] (read-out: Ki Plus) is 43.3 pM; in experiment [2] (read-out: Ki Ultra) it was 207 pM.

As to `COc1ccc(C[C@@H]2NC(=O)[C@H]([C@@H](C)O)NC(=O)[C@@H]3[C@@H]4CCN3C(=O)[C@@H]3Cc5cn(c6ccc(F)cc56)Cc5cn(nn5)CC(NC(=O)CCCCCC(=O)N[C@H](CNC(=O)CCOCCOCC[N+](C)(C)C)C(=O)N[C@@H](Cc5cccc(c5)CNC(=O)CO4)C(=O)N3)c3ccc(cc3)CCNC(=O)[C@]3(C)CCCN3C2=O)cc1` [Ex-12], the Ki in experiment [1] (read-out: Ki Plus) was 14.5 pM; in experiment [2] (read-out: Ki Ultra), 22.5 pM.

`COc1ccc(C[C@@H]2NC(=O)[C@H]([C@@H](C)O)NC(=O)[C@@H]3[C@@H]4CCN3C(=O)[C@@H]3Cc5cn(c6ccc(F)cc56)Cc5cn(nn5)CCN(Cc5ccc(cc5)CCNC(=O)[C@]5(C)CCCN5C2=O)C(=O)CCC(=O)N[C@@H](CNC(=O)CCOCCOCC[N+](C)(C)C)C(=O)N[C@H](C)C(=O)N[C@@H](Cc2cccc(c2)CNC(=O)CO4)C(=O)N3)cc1` [Ex-13]: the Ki in experiment [1] (read-out: Ki Plus) is 145 pM; in experiment [2] (read-out: Ki Ultra) it was 477 pM.

For `COc1ccc(C[C@@H]2NC(=O)[C@H]([C@@H](C)O)NC(=O)[C@@H]3[C@@H]4CCN3C(=O)[C@@H]3Cc5cn(c6ccc(F)cc56)Cc5cn(nn5)CCN(Cc5ccc(cc5)CCNC(=O)[C@]5(C)CCCN5C2=O)C(=O)CCC(=O)N[C@@H](C)C(=O)N[C@H](CNC(=O)CCOCCOCC[N+](C)(C)C)C(=O)N[C@@H](Cc2cccc(c2)CNC(=O)CO4)C(=O)N3)cc1` [Ex-14], the Ki in experiment [1] (read-out: Ki Plus) is 16 pM; in experiment [2] (read-out: Ki Ultra), 21 pM.

`COc1ccc(C[C@@H]2NC(=O)[C@H]([C@@H](C)O)NC(=O)[C@@H]3[C@@H]4CCN3C(=O)[C@@H]3Cc5cn(c6ccc(F)cc56)Cc5cn(nn5)CCN(Cc5ccc(cc5)CCNC(=O)[C@]5(C)CCCN5C2=O)C(=O)CCCC(=O)N[C@@H](CNC(=O)CCOCCOCC[N+](C)(C)C)C(=O)N[C@H](C)C(=O)N[C@@H](Cc2cccc(c2)CNC(=O)CO4)C(=O)N3)cc1` [Ex-15]: the Ki in experiment [1] (read-out: Ki Plus) was 103 pM; in experiment [2] (read-out: Ki Ultra), 260 pM.

Regarding `COc1ccc(C[C@@H]2NC(=O)[C@H]([C@@H](C)O)NC(=O)[C@@H]3[C@@H]4CCN3C(=O)[C@@H]3Cc5cn(c6ccc(F)cc56)Cc5cn(nn5)CCN(Cc5ccc(cc5)CCNC(=O)[C@]5(C)CCCN5C2=O)C(=O)CCCCCC(=O)N[C@H](CNC(=O)CCOCCOCC[N+](C)(C)C)C(=O)N[C@@H](Cc2cccc(c2)CNC(=O)CO4)C(=O)N3)cc1` [Ex-16], the inhibitory constant (Ki) in experiment [1] (read-out: Ki Plus) was 14.2 pM; in experiment [2] (read-out: Ki Ultra) it was 51.4 pM.

In the case of `COc1ccc(C[C@@H]2NC(=O)[C@H]([C@@H](C)O)NC(=O)[C@@H]3[C@@H]4CCN3C(=O)[C@@H]3Cc5cn(c6ccc(F)cc56)CCCCCN(Cc5ccc(cc5)CCNC(=O)[C@]5(C)CCCN5C2=O)C(=O)CCC(=O)N[C@@H](C)C(=O)N[C@H](CNC(=O)CCOCCOCC[N+](C)(C)C)C(=O)N[C@@H](Cc2cccc(c2)CNC(=O)CO4)C(=O)N3)cc1` [Ex-17], the values for the Ki in experiment [1] (read-out: Ki Plus) and in experiment [2] (read-out: Ki Ultra) were at most 5.58 pM and 2.8 pM, respectively.

For the compound `COc1ccc(C[C@@H]2NC(=O)[C@H]([C@@H](C)O)NC(=O)[C@@H]3[C@@H]4CCN3C(=O)[C@@H]3Cc5cn(c6ccc(F)cc56)CCCCCCN(Cc5ccc(cc5)CCNC(=O)[C@]5(C)CCCN5C2=O)C(=O)CCCC(=O)N[C@H](CNC(=O)CCOCCOCC[N+](C)(C)C)C(=O)N[C@@H](Cc2cccc(c2)CNC(=O)CO4)C(=O)N3)cc1` [Ex-18], the results for the inhibitory constant (Ki) in experiment [1] (Ki Plus) and in experiment [2] (Ki Ultra) were 33.6 pM and 118 pM, respectively.

In the case of `COc1ccc(C[C@@H]2NC(=O)[C@H]([C@@H](C)O)NC(=O)[C@@H]3[C@@H]4CCN3C(=O)[C@@H]3Cc5cn(c6ccc(F)cc56)CCCCCCN(Cc5ccc(cc5)CCNC(=O)[C@]5(C)CCCN5C2=O)C(=O)CCC(=O)N[C@H]2CN(C(=O)CCOCCOCC[N+](C)(C)C)CCCCC(=O)NC[C@@H](NC2=O)C(=O)N[C@@H](Cc2cccc(c2)CNC(=O)CO4)C(=O)N3)cc1` [Ex-19], the Ki in experiment [1] (read-out: Ki Plus) was 16.6 pM; in experiment [2] (read-out: Ki Ultra), 12 pM.

Consider `COc1ccc(C[C@@H]2NC(=O)[C@H]([C@@H](C)O)NC(=O)[C@@H]3[C@@H]4CCN3C(=O)[C@@H]3Cc5cn(c6ccc(F)cc56)CCCCCCN(Cc5ccc(cc5)CCNC(=O)[C@]5(C)CCCN5C2=O)C(=O)CCCCC(=O)N[C@H](CNC(=O)CCOCCOCC[N+](C)(C)C)C(=O)N[C@@H](Cc2cccc(c2)CNC(=O)CO4)C(=O)N3)cc1` [Ex-20], for which the inhibitory constant (Ki) was 13 pM in experiment [1] (read-out: Ki Plus) and 17.1 pM in experiment [2] (read-out: Ki Ultra).

For `COc1ccc(C[C@@H]2NC(=O)[C@H]([C@@H](C)O)NC(=O)[C@@H]3[C@@H]4CCN3C(=O)[C@@H]3Cc5cn(c6ccc(F)cc56)CCCCCCN(Cc5ccc(cc5)CCNC(=O)[C@]5(C)CCCN5C2=O)C(=O)CCCCCC(=O)N[C@H](CNC(=O)CCOCCOCC[N+](C)(C)C)C(=O)N[C@@H](Cc2cccc(c2)CNC(=O)CO4)C(=O)N3)cc1` [Ex-21], the Ki in experiment [1] (Ki Plus) is 5.69 pM; in experiment [2] (Ki Ultra), 1.26 pM.

Take `COc1ccc(C[C@@H]2NC(=O)[C@H]([C@@H](C)O)NC(=O)[C@@H]3[C@@H]4CCN3C(=O)[C@@H]3Cc5cn(c6ccc(F)cc56)CCCCCCN(Cc5ccc(cc5)CCNC(=O)[C@]5(C)CCCN5C2=O)C(=O)CCC(=O)N[C@@H](CNC(=O)CCOCCOCC[N+](C)(C)C)C(=O)N[C@H](C)C(=O)N[C@@H](Cc2cccc(c2)CNC(=O)CO4)C(=O)N3)cc1` [Ex-22]: the Ki in experiment [1] (read-out: Ki Plus) is 9.26 pM; in experiment [2] (read-out: Ki Ultra) it was 15.2 pM.

As to `COc1ccc(C[C@@H]2NC(=O)[C@H]([C@@H](C)O)NC(=O)[C@@H]3[C@@H]4CCN3C(=O)[C@@H]3Cc5cn(c6ccc(F)cc56)CCCCCCN(Cc5ccc(cc5)CCNC(=O)[C@]5(C)CCCN5C2=O)C(=O)CCC(=O)N[C@@H](C)C(=O)N[C@H](CNC(=O)CCC(=O)NC2OC(CO)C(O)C(O)C2O)C(=O)N[C@@H](Cc2cccc(c2)CNC(=O)CO4)C(=O)N3)cc1` (some centres unmarked) [Ex-23], the inhibitory constant (Ki) in experiment [1] (read-out: Ki Plus) was 9.38 pM; in experiment [2] (read-out: Ki Ultra), 2.39 pM.

For the compound `COc1ccc(C[C@@H]2NC(=O)[C@H]([C@@H](C)O)NC(=O)[C@@H]3[C@@H]4CCN3C(=O)[C@@H]3Cc5cn(c6ccc(F)cc56)CCCCCCN(Cc5ccc(cc5)CCNC(=O)[C@]5(C)CCCN5C2=O)C(=O)CCC(=O)N[C@@H](C)C(=O)N[C@H](CNC(=O)CCCCC[N+](C)(C)C)C(=O)N[C@@H](Cc2cccc(c2)CNC(=O)CO4)C(=O)N3)cc1` [Ex-25], the Ki in experiment [1] (read-out: Ki Plus) is 11.3 pM; in experiment [2] (Ki Ultra), 4.63 pM.
